Data: patent US9889180B2, “Method of treating cancer” (Agency for Science, Technology and Research, priority 2012, dated 2018)

Columns and labels:
DU145 cells = test: Cell proliferation assay (CellTiter-Glo) in DU145 cells; type: cell-based, human; settings: siRNA knockdown combined with IFN-γ treatment
Experimental: (§1) The optimal cell seeding was determined empirically for all cell lines by examining the growth of a wide range of seeding densities in a 96-well format to identify conditions that permitted proliferation for 6 days. Cells were then plated at the optimal seeding density 24 h before siRNA or drug treatment in triplicate. Plates were incubated for 6 days at 37° C. in 5% CO2. Cells were then lysed with CellTiter-Glo (CTG) (Promega) and chemiluminescent signal was detected with a microplate reader (TECAN). In addition, an untreated plate of cells was harvested at the time of drug or siRNA addition (T0) to quantify the starting number of cells. CTG values obtained after the 6 day treatment were expressed as percentages of the T0 value and plotted against time of treatment. Cells received 1-5 μM of DZNep, 25 ng/mL of IFN-γ and 0.1-2.5 μM of GSK343 unless stated otherwise for 72-96 h.

LNCaP cells = test: Cell proliferation assay (CellTiter-Glo) in LNCaP cells; type: cell-based, human; settings: siRNA knockdown combined with IFN-γ treatment
Experimental: as §1

[1] = test system: PC3-derived prostatospheres; test: Prostatosphere formation assay, PC3; type: cell-based, human; settings: EZH2 knockdown in combination with IFN-γ, 7 days
[2] = test system: JAK2 phosphorylation (Tyr1007/1008); test: pJAK2 and total JAK2 ELISA assay in DU145 cells; type: cell-based, human; settings: in response to IFN-γ (25 ng/mL) stimulation
Experimental: pJAK2 levels were assessed using an ELISA assay kit (Tyr1007/1008, Life Technologies) and total JAK2 level with JAK2 (total) ELISA assay kit. Cells were first lysed with RIPA buffer and processed in the same way as western blot samples. pJAK2 and total JAK2 levels were determined by performing the ELISA assay on the processed cell lysates according to the manufacturer's protocol. The results were expressed as fold change after normalizing the pJAK2 (Tyr1007/1008) level to the total JAK2 level.

EZH2/PRC2 and H3K27me3 = target: T1, EZH2/PRC2 and H3K27me3 (Homo sapiens, UniProt Q15910); test: Western blot of PRC2 proteins and H3K27me3 in DU145 cells; type: cell-based; settings: DZNep
T1 construct: endogenous in cells; host or cells: DU145 (named by the earlier reading of the assay)
T1 sequence (Q15910 whole entry): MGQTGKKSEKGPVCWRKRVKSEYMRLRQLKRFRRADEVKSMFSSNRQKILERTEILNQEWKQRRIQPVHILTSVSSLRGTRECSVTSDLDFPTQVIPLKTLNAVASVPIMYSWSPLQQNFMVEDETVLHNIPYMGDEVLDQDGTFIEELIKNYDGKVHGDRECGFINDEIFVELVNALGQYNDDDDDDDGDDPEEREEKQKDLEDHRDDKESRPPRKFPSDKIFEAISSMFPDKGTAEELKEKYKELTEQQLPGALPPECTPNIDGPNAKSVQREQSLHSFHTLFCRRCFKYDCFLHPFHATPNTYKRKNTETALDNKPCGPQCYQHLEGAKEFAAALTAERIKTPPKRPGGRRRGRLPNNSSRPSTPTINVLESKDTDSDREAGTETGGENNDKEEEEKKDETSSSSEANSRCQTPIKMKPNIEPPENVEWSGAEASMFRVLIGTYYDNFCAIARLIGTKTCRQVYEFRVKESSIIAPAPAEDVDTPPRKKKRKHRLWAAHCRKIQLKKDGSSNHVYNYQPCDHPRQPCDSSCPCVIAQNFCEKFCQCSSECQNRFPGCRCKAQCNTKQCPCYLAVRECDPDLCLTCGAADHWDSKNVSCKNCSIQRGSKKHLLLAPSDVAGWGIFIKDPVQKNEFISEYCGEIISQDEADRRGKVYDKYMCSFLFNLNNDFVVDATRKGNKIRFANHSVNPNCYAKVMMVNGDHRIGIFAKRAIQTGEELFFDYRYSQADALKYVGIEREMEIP
T1 sequence (O75530 whole entry partner): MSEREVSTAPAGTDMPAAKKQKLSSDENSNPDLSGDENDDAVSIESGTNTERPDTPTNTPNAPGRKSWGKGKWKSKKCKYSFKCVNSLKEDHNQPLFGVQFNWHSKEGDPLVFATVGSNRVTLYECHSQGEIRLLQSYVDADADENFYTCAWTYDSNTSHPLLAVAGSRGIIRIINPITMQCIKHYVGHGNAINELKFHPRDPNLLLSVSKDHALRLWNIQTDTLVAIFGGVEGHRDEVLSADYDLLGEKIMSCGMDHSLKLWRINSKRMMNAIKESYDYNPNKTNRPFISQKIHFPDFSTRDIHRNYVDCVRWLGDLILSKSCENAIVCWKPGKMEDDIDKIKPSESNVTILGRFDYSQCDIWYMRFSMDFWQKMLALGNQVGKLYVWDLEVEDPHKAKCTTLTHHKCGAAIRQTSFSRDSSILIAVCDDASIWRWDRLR
T1 sequence (Q15022 whole entry partner): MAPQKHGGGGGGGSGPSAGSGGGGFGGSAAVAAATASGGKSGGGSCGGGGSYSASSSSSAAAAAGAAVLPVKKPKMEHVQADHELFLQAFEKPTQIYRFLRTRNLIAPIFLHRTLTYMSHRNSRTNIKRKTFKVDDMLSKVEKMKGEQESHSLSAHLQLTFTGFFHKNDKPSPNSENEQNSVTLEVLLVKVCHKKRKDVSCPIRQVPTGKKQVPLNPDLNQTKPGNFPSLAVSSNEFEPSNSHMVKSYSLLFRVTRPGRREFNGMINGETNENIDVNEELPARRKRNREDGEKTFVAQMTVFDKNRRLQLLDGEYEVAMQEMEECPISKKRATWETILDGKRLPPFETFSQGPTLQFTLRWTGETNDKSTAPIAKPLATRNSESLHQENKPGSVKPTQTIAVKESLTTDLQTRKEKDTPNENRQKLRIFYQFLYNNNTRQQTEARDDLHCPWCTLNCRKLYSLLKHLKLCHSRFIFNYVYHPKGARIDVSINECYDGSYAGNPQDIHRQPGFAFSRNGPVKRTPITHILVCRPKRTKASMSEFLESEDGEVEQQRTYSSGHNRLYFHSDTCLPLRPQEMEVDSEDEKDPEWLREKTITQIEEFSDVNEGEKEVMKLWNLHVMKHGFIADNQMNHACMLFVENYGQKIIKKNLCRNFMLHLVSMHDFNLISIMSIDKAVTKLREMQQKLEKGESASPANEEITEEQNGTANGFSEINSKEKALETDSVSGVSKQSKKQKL
Experimental: (§2) Western Blotting was performed as described previously. Briefly, Cells were scraped, collected, and lysed in RIPA buffer. To release histones from chromatin, cell lysates were further sonicated for 15 sec using a XL2000 Microson Ultrasonic Processor (Misonix). Equal amounts of protein (30 μg) were separated on SDS-polyacrylamide gels and transferred to PVDF membranes. The blots were probed with antibodies against EED (07-368), SUZ12 (07-379), trimethylated H3-K27 (07-449), Acetyl-Histone H3 (06-599), which were purchased from Upstate Biotechnology. IFNGR1 (GIR-94) and anti-IFI16 (1G7) were purchased from Santa Cruz. EZH2 phospho S21 (00388) was purchased from Bethyl Laboratories. EZH2 (AC22), P110α PI3K, p-AKT (T308), p-AKT (S473), pSTAT1Y701, total STAT1, Histone H3 (3H1), Beclin-1 and cleaved PARP were purchased from Cell Signaling. Myc and Actin were purchased from Roche Applied Science and Sigma-Aldrich, respectively.

RWPE1-MYC cells = test: FACS cell death analysis in RWPE1-MYC cells; type: cell-based, human; settings: DZNep (2.5 μM) for 3 days with increasing doses of IFN-γ
Experimental: For the assessment of cell death, cells were harvested in 70% ethanol. Fixed cells were stained with Propidium Iodide (P.I) (50 μg/mL). The stained cells were analyzed for DNA content by FACS in a FACSCalibur (Becton Dickinson Instrument). % of cell death was defined as the sub-G1 population quantified using the CellQuest software (Becton Dickinson). The percentage of dead cells or sub-G1 cells was calculated by comparing the results of each experiment to the results from DMSO-treated cells. Each assay was repeated a minimum of three times, with results reported as means+s.e.m.

[3] = test system: IFN responsive genes (IFI16, IRF1, OAS1); test: Quantitative PCR of IFN responsive genes in DU145 prostatospheres; type: cell-based, human; settings: DZNep with IFN-γ
Experimental: Total RNA was isolated by using Trizol (Invitrogen) and purified with the RNeasy Mini Kit (Qiagen). The microarray hybridization was performed using the Illumina Gene Expression Sentrix BeadChip HumanRef-8_V3, and data analysis was performed by GeneSpring software from Agilent Technologies as described previously. The analyzed gene sets by GeneSpring were next subjected to Ingenuity Pathway Analysis (IPA) for gene ontology (GO) analysis. Reverse transcription and quantitative PCR assays were performed using High Capacity cDNA Archive kit and KAPA SyBr Fast qPCR kit (KAPA biosystems). For quantification of mRNA levels, 18S level was used as an internal control. All reactions were analyzed in an Applied Biosystems PRISM 7500 Fast Real-Time PCR system in 96-well plate format. Prostatospheres were generated according to protocols known to the skilled person in the art. […] 7 days old prostatospheres formed were stained with 4 μg/ml p-Iodonitrotetrazolium Violet (INT) overnight and were counted and analyzed using a GelCount™ automatic plate scanner (Oxford Optronics) and GelCount Version 0.025.1 software (Oxford Optronics). […]

[4] = test system: IFNGR1 expression and STAT1 activation; test: Western blot of IFNGR1 and IFN signaling in T47D cells; type: cell-based, human
Experimental: as §2

Row | Molecule | cell growth after knockdown (DU145 cells) | cell growth after knockdown (LNCaP cells) | tumorsphere formation after knockdown [1] | JAK2 phosphorylation after knockdown [2] | PRC2 protein levels (EZH2, EED, SUZ12) (EZH2/PRC2 and H3K27me3) | depletion of H3K27me3 (EZH2/PRC2 and H3K27me3) | induction of apoptosis / cell death (RWPE1-MYC cells) | expression of IFN genes in prostatospheres [3] | IFNGR1 expression [4] | STAT1 activation and PARP cleavage ([4]; DZNep co-treated with IFN-γ)
1 | EZH2 knockdown: EZH2 siRNA: 5′-GACUCUGAAUGCAGUUGCU-3′ (SEQ ID NO: 1) (other strand not given here) | remarkable synergy in cell growth regression | no such an effect was seen | efficiently inhibited the tumorsphere formation | enhanced | – | – | – | – | – | –
2 | Cl.Nc1nccc2c1ncn2[C@@H]1C=C(CO)[C@@H](O)[C@H]1O [DZNep, (−)-1-[(1R,4R,5S)-3-(Hydroxymethyl)-4,5-dihydroxy-2-cyclopenten-1-yl]4-aminoimidazo[4,5-c]pyridine hydrochloride] | – | – | – | – | depleted EZH2, as well as the other two PRC2 proteins EED and SUZ12 | much lower efficiency in depleting H3K27me3 | synergistic effect | enhanced response to IFN-γ stimulation | restored the IFNGR1 expression | increased STAT1 activation and PARP cleavage
